Data: patent US10280166B2, “2-(1H-indazol-3-yl)-3H-imidazo[4,5-B]pyridine and therapeutic uses thereof” (Samumed, LLC, priority 2014, dated 2019)

Key:
[1] = system: Wnt activity (SW480 colon carcinoma cells stably expressing the Sp5-Luc reporter gene); assay: Sp5-Luc reporter gene screening assay for Wnt activity in SW480 cells; type: cell-based; conditions: Homo sapiens, 42 h incubation, luminescence
Summary of the method: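 SW480 cells stably carrying an Sp5 promoter (eight TCF/LEF sites)-luciferase reporter were plated overnight in 10% FCS medium. BrightGlo luminescence was normalised to DMSO wells, and IC50 was obtained by four-parameter fit.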

[2] = system: primary human fibroblasts derived from IPF patients (LL29 cells); assay: Inhibition of fibrosis (αSMA) in TGF-β1 treated primary human fibroblasts from IPF patients; type: cell-based; conditions: Fibroblast, 96 h, TGF-β1 20 ng/mL, 4 days, % αSMA positive cells
Summary of the method: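 IPF patient-derived LL29 lung fibroblasts in 1% FBS were treated with compound (11 points, 10 μM to 1.87 nM, 0.1% DMSO) and then 20 ng/mL TGF-β1 for 4 days at 37° C. Fraction of SYTOX-negative cells positive for αSMA was quantified by immunofluorescence imaging and normalized to TGF-β1 controls. EC50 came from non-linear regression over triplicate wells.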

Structure (SMILES) | IC50 [1] [nM] | EC50 [2] [nM]
O=C(Nc1cncc(-c2ccc3[nH]nc(-c4nc5c(-c6cccs6)ccnc5[nH]4)c3c2)c1)C1CC1 [Compound 331, N-(5-(3-(7-(Thiophen-2-yl)-3H-imidazo[4,5-b]pyridin-2-yl)-1H-indazol-5-yl)pyridin-3-yl)cyclopropanecarboxamide] | 34.7 | 0.155
O=C(Nc1cncc(-c2ccc3[nH]nc(-c4nc5c(-c6cccs6)ccnc5[nH]4)c3c2)c1)C1CCCC1 [Compound 333, N-(5-(3-(7-(Thiophen-2-yl)-3H-imidazo[4,5-b]pyridin-2-yl)-1H-indazol-5-yl)pyridin-3-yl)cyclopentanecarboxamide] | 6.3 | 0.009
FC1(F)CCN(Cc2cncc(-c3ccc4[nH]nc(-c5nc6c(-c7cccs7)ccnc6[nH]5)c4c3)c2)C1 [Compound 337, 2-(5-(5-((3,3-Difluoropyrrolidin-1-yl)methyl)pyridin-3-yl)-1H-indazol-3-yl)-7-(thiophen-2-yl)-3H-imidazo[4,5-b]pyridine] | 15 | 1.31
Fc1ccc(-c2ccnc3[nH]c(-c4n[nH]c5ccc(-c6cncc(CN7CCCC7)c6)cc45)nc23)s1 [Compound 352, 7-(5-Fluorothiophen-2-yl)-2-(5-(5-(pyrrolidin-1-ylmethyl)pyridin-3-yl)-1H-indazol-3-yl)-3H-imidazo[4,5-b]pyridine] | 13.2 | 0.125
Cc1ccc(-c2ccnc3[nH]c(-c4n[nH]c5ccc(-c6cncc(N)c6)cc45)nc23)s1 [Compound 367, 5-(3-(7-(5-Methylthiophen-2-yl)-3H-imidazo[4,5-b]pyridin-2-yl)-1H-indazol-5-yl)pyridin-3-amine] | 4.3 | 0.314
Cc1ccc(-c2ccnc3[nH]c(-c4n[nH]c5ccc(-c6cncc(NC(=O)C(C)(C)C)c6)cc45)nc23)s1 [Compound 372, N-(5-(3-(7-(5-Methylthiophen-2-yl)-3H-imidazo[4,5-b]pyridin-2-yl)-1H-indazol-5-yl)pyridin-3-yl)pivalamide] | 0.6 | 0.009
Cc1ccc(-c2ccnc3[nH]c(-c4n[nH]c5ccc(-c6cncc(CN7CCCCC7)c6)cc45)nc23)s1 [Compound 379, 7-(5-Methylthiophen-2-yl)-2-(5-(5-(piperidin-1-ylmethyl)pyridin-3-yl)-1H-indazol-3-yl)-3H-imidazo[4,5-b]pyridine] | 76 | 0.405
Cc1ccc(-c2ccnc3[nH]c(-c4n[nH]c5ccc(-c6cncc(NC(=O)C7CCCC7)c6)cc45)nc23)s1 [Compound 385, N-(5-(3-(7-(5-Methylthiophen-2-yl)-3H-imidazo[4,5-b]pyridin-2-yl)-1H-indazol-5-yl)pyridin-3-yl)cyclopentanecarboxamide] | 19.2 | 0.084
Cc1ccncc1-c1ccc2[nH]nc(-c3nc4c(-c5cc(F)cc(CNS(C)(=O)=O)c5)ccnc4[nH]3)c2c1 [Compound 421, N-(3-fluoro-5-(2-(5-(4-Methylpyridin-3-yl)-1H-indazol-3-yl)-3H-imidazo[4,5-b]pyridin-7-yl)benzyl)methanesulfonamide] | 6.1 | 0.045
CS(=O)(=O)NCc1cc(F)cc(-c2ccnc3[nH]c(-c4n[nH]c5ccc(-c6cncc(CNCc7ccccc7)c6)cc45)nc23)c1 [Compound 439, N-(3-(2-(5-(5-((Benzylamino)methyl)pyridin-3-yl)-1H-indazol-3-yl)-3H-imidazo[4,5-b]pyridin-7-yl)-5-fluorobenzyl)methanesulfonamide] | 354 | 0.009
CCNCc1cncc(-c2ccc3[nH]nc(-c4nc5c(-c6cc(F)cc(NCCN(C)C)c6)ccnc5[nH]4)c3c2)c1 [Compound 448, N^1-(3-(2-(5-(5-((Ethylamino)methyl)pyridin-3-yl)-1H-indazol-3-yl)-3H-imidazo[4,5-b]pyridin-7-yl)-5-fluorophenyl)-N^2,N^2-dimethylethane-1,2-diamine] | 203 | 0.701
CC(C)Nc1cncc(-c2ccc3[nH]nc(-c4nc5c(-c6cc(F)cc(NCCN(C)C)c6)ccnc5[nH]4)c3c2)c1 [Compound 454, N^1-(3-Fluoro-5-(2-(5-(5-(isopropylamino)pyridin-3-yl)-1H-indazol-3-yl)-3H-imidazo[4,5-b]pyridin-7-yl)phenyl)-N^2,N^2-dimethylethane-1,2-diamine] | 51.7 | 0.019
CN(C)CCNc1cc(F)cc(-c2ccnc3[nH]c(-c4n[nH]c5ccc(-c6cncc(CNCC7CCCC7)c6)cc45)nc23)c1 [Compound 466, N^1-(3-(2-(5-(5-(((Cyclopentylmethyl)amino)methyl)pyridin-3-yl)-1H-indazol-3-yl)-3H-imidazo[4,5-b]pyridin-7-yl)-5-fluorophenyl)-N^2,N^2-dimethylethane-1,2-diamine] | 442 | 1.11
Fc1cccc(-c2ccnc3[nH]c(-c4n[nH]c5ccc(C6CCNCC6)cc45)nc23)c1 [Compound 1873, 7-(3-Fluorophenyl)-2-(5-(piperidin-4-yl)-1H-indazol-3-yl)-3H-imidazo[4,5-b]pyridine] | 3270 | 0.037
Fc1cccc(-c2ccnc3[nH]c(-c4n[nH]c5ccc(C6=CCNCC6)cc45)nc23)c1 [Compound 1874, 7-(3-Fluorophenyl)-2-(5-(1,2,3,6-tetrahydropyridin-4-yl)-1H-indazol-3-yl)-3H-imidazo[4,5-b]pyridine] | > 1000 | 0.317
Cn1cc(-c2ccc3[nH]nc(-c4nc5c(-c6cccc(F)c6)ccnc5[nH]4)c3c2)cn1 [Compound 1876, 7-(3-Fluorophenyl)-2-(5-(1-methyl-1H-pyrazol-4-yl)-1H-indazol-3-yl)-3H-imidazo[4,5-b]pyridine] | 61 | 9.99
Cc1ncc(-c2ccc3[nH]nc(-c4nc5c(-c6cccc(F)c6)ccnc5[nH]4)c3c2)n1C [Compound 1877, 2-(5-(1,2-Dimethyl-1H-imidazol-5-yl)-1H-indazol-3-yl)-7-(3-fluorophenyl)-3H-imidazo[4,5-b]pyridine] | > 10000 | 9.99
NC1CN(c2cncc(-c3ccc4[nH]nc(-c5nc6c(-c7cccc(F)c7)ccnc6[nH]5)c4c3)n2)C1 [Compound 1878, 1-(6-(3-(7-(3-Fluorophenyl)-3H-imidazo[4,5-b]pyridin-2-yl)-1H-indazol-5-yl)pyrazin-2-yl)azetidin-3-amine] | 215 | 9.99
Fc1cccc(-c2ccnc3[nH]c(-c4n[nH]c5ccc(-c6cncc(OC7CCCCC7)c6)cc45)nc23)c1 [Compound 1879, 2-(5-(5-(Cyclohexyloxy)pyridin-3-yl)-1H-indazol-3-yl)-7-(3-fluorophenyl)-3H-imidazo[4,5-b]pyridine] | > 10000 | 9.99
Fc1cccc(-c2ccnc3[nH]c(-c4n[nH]c5ccc(-c6cncc(OC7CCNCC7)c6)cc45)nc23)c1 [Compound 1880, 7-(3-Fluorophenyl)-2-(5-(5-(piperidin-4-yloxy)pyridin-3-yl)-1H-indazol-3-yl)-3H-imidazo[4,5-b]pyridine] | 1190 | 0.417
O=C(CC1CCNCC1)Nc1cncc(-c2ccc3[nH]nc(-c4nc5c(-c6cccc(F)c6)ccnc5[nH]4)c3c2)c1 [Compound 1881, N-(5-(3-(7-(3-Fluorophenyl)-3H-imidazo[4,5-b]pyridin-2-yl)-1H-indazol-5-yl)pyridin-3-yl)-2-(piperidin-4-yl)acetamide] | 65 | 0.071
